The values below are quoted from earlier work in patent publication US11141509B2, “Method for loading at least two powder substances into recesses provided at a stent surface” (CID S.p.A., priority 2016, dated 2021).

For this data set the following is noted: Cre8 coronary stent, Amphilimus formulation; Eurointervention 2012; 7:1087-1094.

Take `CO[C@H]1C[C@@H]2CC[C@@H](C)[C@@](O)(O2)C(=O)C(=O)N2CCCC[C@H]2C(=O)O[C@H]([C@H](C)C[C@@H]2CC[C@@H](O)[C@H](OC)C2)CC(=O)[C@H](C)/C=C(\C)[C@@H](O)[C@@H](OC)C(=O)[C@H](C)C[C@H](C)/C=C/C=C/C=C/1C` [Sirolimus]: the “in vivo release after coronary implantation” value is reported as “greater than 30 days”.
